Data taken from patent US11352350B2, “IRAK degraders and uses thereof” (Kymera Therapeutics, Inc., priority 2018, dated 2022).
Where two headings read alike, the source gives them in different places.

Experiments:
IRAK4 [1] = molecular target: T1, IRAK4 (Homo sapiens (Human), UniProt Q9NWZ3); experiment: hPBMC IRAK4 degradation flow assay; type: cell-based; conditions: hPBMC monocyte
Procedure: hPBMC IRAK4 degradation flow assay. Frozen PBMCs were thawed into RPMI with 10% FBS and allowed to recover. On the same day as thawed, PBMCs were plated in 96 well plate, 90 uL per well. Compound plates were prepared and a 10 point, 5-fold dilution was performed with a final DMSO concentration of 0.1%. Compound 10 μL per well was added, sealed and incubated at 37° C., 5% C02 for 20 hours (for 4 hour treatment, compounds were prepared and added the following day). […] Cells were spun down and washed two times with PBS/0.5% BSA, aspirated to pellet and placed into −80° C. freezer until further processing for flow. On the flow run day, PBMC plates were thawed and samples were transferred to PCR plates. The pre-perm staining cocktail (CD3 Ax488/CD8 BUV805/CD14 BUV395/CD16/56 BV711/CD19 BV785) was added to samples and incubated for 30 minutes at room temperature. Samples were washed two times and permeabilized with methanol for 10 minutes at 4° C. […] Samples were washed two times with PBS/BSA and run on a BD LSRFortessa. Mononuclear cells are gated by SSCH/FSCH and single cells. Monocytes are then gated through CD14 positive gate and lymphocytes are gated through CD14 negative gate. To determine absolute DC50s and max degradation values, MFI values were normalized to DMSO max and 20 hour 10 μM min control. Twenty hour dose curves were calculated using a 4 parameter logistic regression curve fit, no constraints (Top doses were removed if hook effects were observed and the bottom was constrained to 0).

IRAK4 [2] = molecular target: T1, IRAK4; experiment: IRAK4 MSD degradation in OCI-LY10; type: cell-based
Outline: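 Remaining IRAK4 quantified by electrochemiluminescent MSD sandwich assay with two anti-IRAK4 antibodies. Compounds were dosed as 8 concentrations in 1:3 steps from a 1 to 10 μM final top on OCI-LY10 cells, incubated 4 to 24 h at 37° C. under 5% CO2. DC50 fitted with a three-parameter logistic curve.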

OCI-LY10 = experiment: CTG Cell Viability Assay - OCI-LY10; type: cell-based, human; conditions: OCI-LY10, 4 days, read-out: CTG Cell Viability Assay - OCI-LY10: Average external-IC50
Outline: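 Viability read by CellTiter-Glo luminescence after 4 days at 37° C under 5% CO2 with compound (top 10 μM final, 1:3 steps, 9 doses, DMSO 0.2%). Three-parameter logistic fit gave IC50.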

[3] = 20 hrs, read-out: IRAK4 degradation in hPBMC monocyte: DC50
[4] = OCI-LY10, 4 hrs, read-out: IRAK4 MSD degradation in OCI-LY10 at 4 hrs: DC50
[5] = 20 hr, flow assay, read-out: IRAK4 degradation in hPBMC monocyte at 20 hr: Average external Abs DC50
[6] = OCI-LY10, 24 hrs, read-out: IRAK4 MSD degradation in OCI-LY10 at 24 hrs: DC50
[7] = OCI-LY10, 4 hrs, MSD, read-out: IRAK4 MSD degradation in OCI-LY10 at 4 hrs: Average external-Abs DC50
[8] = OCI-LY10, 24 hrs, MSD, read-out: IRAK4 MSD degradation in OCI-LY10 at 24 hrs: Average external-Abs DC50

T1 sequence (Q9NWZ3 whole entry): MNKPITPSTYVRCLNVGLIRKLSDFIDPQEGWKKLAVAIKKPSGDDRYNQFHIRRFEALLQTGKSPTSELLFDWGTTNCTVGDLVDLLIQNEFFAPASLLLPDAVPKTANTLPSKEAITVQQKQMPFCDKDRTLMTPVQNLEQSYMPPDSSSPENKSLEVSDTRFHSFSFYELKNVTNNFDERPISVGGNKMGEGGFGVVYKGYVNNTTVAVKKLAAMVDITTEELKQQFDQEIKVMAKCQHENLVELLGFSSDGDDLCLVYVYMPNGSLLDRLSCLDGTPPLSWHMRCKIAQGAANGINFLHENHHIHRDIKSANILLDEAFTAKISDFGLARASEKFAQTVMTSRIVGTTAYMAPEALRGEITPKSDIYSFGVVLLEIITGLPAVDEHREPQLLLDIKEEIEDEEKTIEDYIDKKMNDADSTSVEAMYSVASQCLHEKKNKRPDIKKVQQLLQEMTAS

SMILES | IC50 (OCI-LY10; Homo sapiens, OCI-Ly10, 96 h) [µM] | DC50 (IRAK4 [2]; [7]) [µM] | also measured
CN(C[C@H]1OC[C@H](n2cc(NC(=O)c3cnn4ccc(N5C[C@H]6C[C@@H]5CO6)nc34)c(C(F)F)n2)CO1)C1CCN(Cc2cccc3c2n(C)c(=O)n3C2CCC(=O)NC2=O)CC1 (stereo partly drawn) [I-507, N-[3-(difluoromethyl)-1-[2-[[[1-[[1-(2,6-dioxo-3-piperidyl)-3-methyl-2-oxo-benzimidazol-4-yl]methyl]-4-piperidyl]-methyl-amino]methyl]-1,3-dioxan-5-yl]pyrazol-4-yl]-5-[(1R,4R)-2-oxa-5-azabicyclo [2.2.1]heptan-5-yl] pyrazolo[1,5-a] pyrimidine-3-carboxamide] |  |  | DC50 (IRAK4 [1]; [3]): < 0.01 µM
Cn1c(=O)n(C2CCC(=O)NC2=O)c2cccc(C#CCOC3CCN(C[C@H]4CC[C@H](n5cc(NC(=O)c6cnn7ccc(N8CCOC9(CCC9)C8)nc67)c(C(F)F)n5)CC4)CC3)c21 (stereo partly drawn) [I-541] |  |  | DC50 (IRAK4 [2]; [4]): 0.01 to 0.1 µM; DC50 (IRAK4 [1]; [3]): < 0.01 µM
Cn1c(=O)n(C2CCC(=O)NC2=O)c2cccc(C#CCC3CCN(C[C@H]4CC[C@H](C5N=C(NC(=O)c6cnn7ccc(N8C[C@H]9CC[C@@H](C8)O9)nc67)C(C(F)F)=N5)CC4)CC3)c21 (stereo partly drawn) [I-534] |  |  | DC50 (IRAK4 [2]; [4]): 0.01 to 0.1 µM; DC50 (IRAK4 [1]; [3]): < 0.01 µM
Cn1c(=O)n(C2CCC(=O)NC2=O)c2cccc(CCCCC3CCN(Cc4ccc(-n5cc(NC(=O)c6cnn7ccc(N8C[C@H]9C[C@@H]8CO9)nc67)c(C(F)F)n5)cc4)CC3)c21 (stereo partly drawn) [I-436] |  |  | DC50 (IRAK4 [1]; [5]): 0.1 to 1 µM
Cn1c(=O)n(C2CCC(=O)NC2=O)c2cccc(CCCOC3CCN(C[C@H]4CC[C@H](n5ncc(NC(=O)c6cnn7ccc(N8CCOCC8)nc67)c5C(F)F)CC4)CC3)c21 (stereo partly drawn) [I-468] |  |  | DC50 (IRAK4 [2]; [4]): 0.1 to 1 µM; DC50 (IRAK4 [1]; [3]): 0.1 to 1 µM
Cn1c(=O)n(C2CCC(=O)NC2=O)c2cccc(C(=O)N3CCC(OC[C@H]4CC[C@H](n5cc(NC(=O)c6cnn7ccc(N8C[C@H]9C[C@@H]8CO9)nc67)c(C(F)F)n5)CC4)CC3)c21 (stereo partly drawn) [I-427] |  |  | DC50 (IRAK4 [1]; [5]): 0.1 to 1 µM
Cn1c(=O)n(C2CCC(=O)NC2=O)c2cccc(CN3CC4(CCN(C(=O)[C@H]5CC[C@H](n6cc(NC(=O)c7cnn8ccc(N9C[C@H]%10C[C@@H]9CO%10)nc78)c(C(F)F)n6)CC5)CC4)C3)c21 (stereo partly drawn) [I-429] |  |  | DC50 (IRAK4 [1]; [5]): < 0.01 µM
O=C1CCC(N2C(=O)c3cccc(NCCCOC4CCN(C[C@H]5OC[C@H](n6cc(NC(=O)c7cnn8ccc(N9CCOCC9)nc78)c(C(F)F)n6)CO5)CC4)c3C2=O)C(=O)N1 (stereo partly drawn) [I-451, N-[3-(difluoromethyl)-1-[2-[[4-[3-[[2-(2,6-dioxo-3-piperidyl)-1,3-dioxo-isoindolin-4-yl]amino]propoxy]-1-piperidyl]methyl]-1,3-dioxan-5-yl]pyrazol-4-yl]-5-morpholino-pyrazolo [1,5-a] pyrimidine-3-carboxamide] | 0.1 to 0.5 |  | DC50 (IRAK4 [2]; [4]): 0.01 to 0.1 µM; DC50 (IRAK4 [2]; [6]): 0.01 to 0.1 µM
O=C1CCC(N2C(=O)c3cccc(N4CCC(CCN5CCC(n6cc(NC(=O)c7cnn8ccc(N9CCOCC9)nc78)c(C(F)F)n6)CC5)CC4)c3C2=O)C(=O)N1 (stereo not drawn) [I-227] | < 0.05 | 0.1 to 1 | 
Cn1c(=O)n(C2CCC(=O)NC2=O)c2ccc(CCCOCCC(=O)N3CCN([C@H]4CC[C@H](Nc5ncnc6[nH]cc(C7CCOCC7)c56)CC4)CC3)cc21 (stereo partly drawn) [I-21] | 0.5 to 1 | > 1 | DC50 (IRAK4 [2]; [8]): > 1 µM
O=C1CCC(N2C(=O)c3cccc(OCCCOC4CCN(C[C@H]5CC[C@H](n6cc(NC(=O)c7cnn8ccc(N9CCOCC9)nc78)c(C(F)F)n6)CC5)CC4)c3C2=O)C(=O)N1 (stereo partly drawn) [I-209] | > 1 | 0.01 to 0.1 | DC50 (IRAK4 [2]; [8]): < 0.01 µM
O=C1CCC(N2C(=O)c3cccc(NCCCOC4CCN(C[C@H]5CC[C@H](n6cc(NC(=O)c7cnn8ccc(N9C%10COCC9C%10)nc78)c(C(F)F)n6)CC5)CC4)c3C2=O)C(=O)N1 (stereo partly drawn) [I-345] | < 0.05 | 0.1 to 1 | DC50 (IRAK4 [2]; [8]): 0.01 to 0.1 µM
O=C1CCC(N2C(=O)c3cccc(NCCCOCCCN4CCC(n5cc(NC(=O)c6cnn7ccc(N8CCOCC8)nc67)c(C(F)F)n5)CC4)c3C2=O)C(=O)N1 (stereo not drawn) [I-226] | < 0.05 | 0.1 to 1 | DC50 (IRAK4 [2]; [8]): 0.01 to 0.1 µM
CN(CCCc1ccc(CNc2cccc3c2C(=O)N(C2CCC(=O)NC2=O)C3=O)cc1)C[C@H]1CC[C@H](n2cc(NC(=O)c3cnn4ccc(N5C[C@H]6C[C@@H]5CO6)nc34)c(C(F)F)n2)CC1 (stereo partly drawn) [I-361] | 0.5 to 1 | > 1 | DC50 (IRAK4 [2]; [8]): 0.01 to 0.1 µM
Cn1c(=O)n(C2CCC(=O)NC2=O)c2cccc(CCCOC3CCN(C[C@H]4CC[C@H](n5cc(NC(=O)c6cnn7ccc(NCC8CC8)nc67)c(C(F)F)n5)CC4)CC3)c21 (stereo partly drawn) [I-156] | > 1 | 0.01 to 0.1 | 
CN(CC1CC1)c1ccn2ncc(C(=O)Nc3cn([C@H]4CC[C@H](CN(C)[C@H]5CC[C@H](Nc6cccc7c6C(=O)N(C6CCC(=O)NC6=O)C7=O)CC5)CC4)nc3C(F)F)c2n1 (stereo partly drawn) [I-455] | 0.05 to 0.1 |  | DC50 (IRAK4 [2]; [4]): 0.01 to 0.1 µM; DC50 (IRAK4 [2]; [6]): 0.01 to 0.1 µM
O=C1CCC(N2C(=O)c3cccc(OCCCOC4CCN(C[C@H]5CC[C@H](n6cc(NC(=O)c7cnn8ccc(N9CCOCC9)nc78)c(C(F)F)n6)CC5)CC4)c3C2=O)C(=O)N1 (stereo partly drawn) [I-297] |  | 0.01 to 0.1 | IC50 (OCI-LY10): > 1 µM
C[C@H]1CN(c2ccn3ncc(C(=O)Nc4cn([C@H]5CC[C@H](CN6CCC(OCCCc7cccc8c7n(C)c(=O)n8C7CCC(=O)NC7=O)CC6)CC5)nc4C(F)F)c3n2)C[C@H](C)O1 (stereo partly drawn) [I-285] | > 1 | 0.01 to 0.1 | 
CC[C@@H]1[C@H](F)C(=O)N[C@@H]1COc1ncc(C#C[C@H]2CC[C@H](CN(C)CCCc3ccc(CNc4cccc5c4C(=O)N(C4CCC(=O)NC4=O)C5=O)cc3)CC2)c2cc(C(N)=O)c(OC)cc12 (stereo partly drawn) [I-338] | < 0.05 | 0.1 to 1 | 
CN(C[C@H]1CC[C@H](n2cc(NC(=O)c3cnn4ccc(N5C[C@H]6C[C@@H]5CO6)nc34)c(C(F)F)n2)CC1)C1CCC(CNc2cccc3c2C(=O)N(C2CCC(=O)NC2=O)C3=O)CC1 (stereo partly drawn) [I-324] | < 0.05 | 0.1 to 1 | 
CN(CCCOC1CCN(C[C@H]2CC[C@H](n3cc(NC(=O)c4cnn5ccc(N6CCOCC6)nc45)c(C(F)F)n3)CC2)CC1)c1cccc2c1C(=O)N(C1CCC(=O)NC1=O)C2=O (stereo partly drawn) [I-212] | > 1 | 0.01 to 0.1 | 
Cn1c(=O)n(C2CCC(=O)NC2=O)c2cccc(CCCOC3CCN(C[C@H]4CC[C@H](n5cc(NC(=O)c6cnn7ccc(N8CCC(O)CC8)nc67)c(C(F)F)n5)CC4)CC3)c21 (stereo partly drawn) [I-157] | > 1 | < 0.01 | 
Cn1c(=O)n(C2CCC(=O)NC2=O)c2cccc(CCCOC3CCN(C(=O)[C@H]4CC[C@H](n5cc(NC(=O)c6cnn7ccc(N8CCOCC8)nc67)c(C(F)F)n5)CC4)CC3)c21 (stereo partly drawn) [I-149] | > 1 | < 0.01 | 
Cn1c(=O)n(C2CCC(=O)NC2=O)c2ccc(CN3CCN(CCO[C@H]4C[C@H](N(C)C[C@H]5CC[C@H](n6cc(NC(=O)c7coc(-c8ccnc(NCC9CC9)c8)n7)c(C(F)F)n6)CC5)C4)CC3)cc21 (stereo partly drawn) [I-252] | 0.1 to 0.5 | < 0.01 | 
Cn1c(=O)n(C2CCC(=O)NC2=O)c2cccc(CCCN3CCC4(CC3)CCN(C(=O)C3CCC(n5cc(NC(=O)c6cnn7ccc(N8C[C@H]9C[C@@H]8CO9)nc67)c(C(F)F)n5)CC3)CC4)c21 (stereo partly drawn) [I-435] |  |  | DC50 (IRAK4 [1]; [5]): < 0.01 µM
CC[C@@H]1CC(=O)N[C@@H]1COc1ncc(C#C[C@H]2CC[C@@H](CN3CCC(OCCCc4cccc5c4n(C)c(=O)n5C4CCC(=O)NC4=O)CC3)CC2)c2cc(C(N)=O)c(OC)cc12 (stereo partly drawn) [I-202] | > 1 | 0.1 to 1 | DC50 (IRAK4 [2]; [8]): 0.01 to 0.1 µM
CN(CC1CCN(c2ccc3c(c2)n(C)c(=O)n3C2CCC(=O)NC2=O)CC1)C[C@H]1CC[C@H](n2cc(NC(=O)c3coc(-c4ccnc(NCC5CC5)c4)n3)c(C(F)F)n2)CC1 (stereo partly drawn) [I-236] | > 1 | < 0.01 | 
Cc1c[nH]c2ncnc(N[C@H]3CC[C@H](N4CCN(C(=O)COCCOCCOCCOCCCc5cccc6c5n(C)c(=O)n6C5CCC(=O)NC5=O)CC4)CC3)c12 (stereo partly drawn) [I-25] | > 1 | > 1 | DC50 (IRAK4 [2]; [8]): > 1 µM
